{"source": "patent US20160039904A1", "about": "“STABILIZED SINGLE HUMAN CD4 DOMAINS AND FUSION PROTEINS” (priority 2013, published 2016)", "key": {"[1]": {"experiment": "Stability against degradation in PBS at 37° C. (binding activity to gp140Con-s)", "assay_type": "physicochemical", "quoted_text": "The proteins were then assessed for their stability against degradation during 15 days of incubation with PBS (see FIG. 12A) or human serum (see FIG. 12B) at 37° C."}, "[2]": {"test_system": "HIV-1 primary isolates Bal and JRFL", "assay_type": "cell-based", "details": "in contrast to D1D2"}, "[3]": {"test_system": "HIV-1 55815.EC3", "experiment": "TZM-bl cell-based neutralization assay", "details": "Table 6; 55815.EC3, clade AG, R5"}, "[4]": {"experiment": "Dynamic light scattering (aggregation)", "assay_type": "physicochemical", "method": "To test whether soluble aggregates of 4Dm2m and 6Dm2m formed during prolonged incubation, dynamic light scattering (DLS) was used. Proteins concentrated to 10 mg/ml in PBS were stored at […] and slowly thawed on ice before measurements."}, "[5]": {"test_system": "HIV-1 92UG037.8", "experiment": "Pseudotyped HIV-1 neutralization (HOS-CD4-CCR5 cells)", "assay_type": "cell-based", "details": "Table 3; 92UG037.8, clade A, R5", "method": "(§1) To determine the potency and breadth of HIV-1 neutralization by the D1 mutants, viruses pseudotyped with Envs from HIV-1 isolates representing clades A-E and using either CCR5 (R5) or CXCR4 (X4) or both (R5X4) as a coreceptor were included. Pseudoviruses were derived from 293T cells and a neutralization assay was performed in duplicate using HOS-CD4-CCR5 (for all R5 and dual tropic viruses) or HOS-CD4-CXCR4 cell lines as described in Chen et al., Proc. Natl. Acad. Sci. USA, 105: 17121-17126 (2008)). Luminescence was measured 48 hours post-infection and the percentage neutralization was calculated by the following formula: (1—average RLU of inhibitor-containing wells/average RLU or virus-only wells)×100."}, "[6]": {"test_system": "HIV-1 R2", "experiment": "Pseudotyped HIV-1 neutralization (HOS-CD4-CCR5 cells)", "assay_type": "cell-based", "details": "Table 3; R2, clade B, R5", "method": "as §1"}, "[7]": {"test_system": "HIV-1 GXC", "experiment": "Pseudotyped HIV-1 neutralization (HOS-CD4-CCR5 cells)", "assay_type": "cell-based", "details": "Table 3, clade C, R5", "method": "as §1"}, "[8]": {"test_system": "HIV-1 Z2Z6", "experiment": "Pseudotyped HIV-1 neutralization (HOS-CD4-CCR5 cells)", "assay_type": "cell-based", "details": "Table 3; Z2Z6, clade D, R5", "method": "as §1"}, "[9]": {"test_system": "HIV-1 CM243", "experiment": "Pseudotyped HIV-1 neutralization (HOS-CD4-CCR5 cells)", "assay_type": "cell-based", "details": "Table 3; CM243, clade E, R5", "method": "as §1"}, "[10]": {"test_system": "HIV-1 JRFL", "experiment": "Pseudotyped HIV-1 neutralization (HOS-CD4-CCR5 cells)", "assay_type": "cell-based", "details": "R5", "method": "as §1"}, "[11]": {"test_system": "HIV-1 89.6", "experiment": "Pseudotyped HIV-1 neutralization (HOS-CD4-CCR5 cells)", "assay_type": "cell-based", "details": "Table 3; 89.6, clade B, R5X4", "method": "as §1"}, "[12]": {"test_system": "HIV-1 JRCSF", "experiment": "Pseudotyped HIV-1 neutralization (HOS-CD4-CCR5 cells)", "assay_type": "cell-based", "details": "Table 3, clade B, R5", "method": "as §1"}, "[13]": {"test_system": "HIV-1 AD8", "experiment": "Pseudotyped HIV-1 neutralization (HOS-CD4-CCR5 cells)", "assay_type": "cell-based", "details": "Table 3; AD8, clade B, R5", "method": "as §1"}, "[14]": {"test_system": "HIV-1 Bal", "experiment": "Pseudotyped HIV-1 neutralization (HOS-CD4-CCR5 cells)", "assay_type": "cell-based", "details": "R5", "method": "as §1"}, "[15]": {"test_system": "HIV-1 GXE", "experiment": "Pseudotyped HIV-1 neutralization (HOS-CD4-CCR5 cells)", "assay_type": "cell-based", "details": "Table 3, clade E, R5", "method": "as §1"}, "[16]": {"test_system": "HIV-1 GS-015.EC12", "experiment": "TZM-bl cell-based neutralization assay", "details": "Table 6; GS-015.EC12, clade C, R5"}, "[17]": {"test_system": "HIV-1 KNH1144.EC1", "experiment": "TZM-bl cell-based neutralization assay", "details": "Table 6; KNH1144.EC1, clade A, R5"}}}
{"substance": "4Dm2m: bispecific multivalent fusion protein of mD1.22 and m36.4; two SEQ ID NO: 20 and two SEQ ID NO: 21 chains", "values": [{"measurement": "remained functional", "setting": "[1]; end of 15 days of incubation with PBS", "result": "about 90%"}, {"measurement": "amount of functional protein", "setting": "[1]; incubation in PBS for 10 days", "result": "no significant decrease"}, {"measurement": "enhancement of HIV-1 infectivity at low concentrations", "setting": "[2]", "result": "not enhance HIV-1 infectivity"}, {"measurement": "IC50", "setting": "[3]", "result": 0.084, "unit": "nM"}, {"measurement": "IC90", "setting": "[3]", "result": 0.61, "unit": "nM"}, {"measurement": "aggregation propensity", "setting": "[4]", "result": "low aggregation propensity"}, {"measurement": "aggregation during incubation (DLS)", "setting": "[4]; 10 mg/ml in PBS, 4° C. and 37° C.", "result": "disappeared within the first day of incubation"}, {"measurement": "average diameter of particles (DLS)", "setting": "[4]; 10 mg/ml in PBS, after freeze-thaw, predominantly small particles", "result": 16.3, "unit": "nm"}, {"measurement": "IC50", "setting": "[5]", "result": "0.051 ± 0.001", "unit": "nM"}, {"measurement": "IC90", "setting": "[5]", "result": "0.45 ± 0.01", "unit": "nM"}, {"measurement": "IC50", "setting": "[6]", "result": "0.028 ± 0.011", "unit": "nM"}, {"measurement": "IC90", "setting": "[6]", "result": "0.43 ± 0.18", "unit": "nM"}, {"measurement": "IC50", "setting": "[7]", "result": "0.61 ± 0.36", "unit": "nM"}, {"measurement": "IC90", "setting": "[7]", "result": 4, "unit": "nM"}, {"measurement": "IC50", "setting": "[8]", "result": "0.14 ± 0.04", "unit": "nM"}, {"measurement": "IC90", "setting": "[8]", "result": "1.1 ± 0.1", "unit": "nM"}, {"measurement": "IC50", "setting": "[9]", "result": "0.29 ± 0.11", "unit": "nM"}, {"measurement": "IC90", "setting": "[9]", "result": "1.2 ± 0.6", "unit": "nM"}, {"measurement": "IC50", "setting": "[10]; Table 2, clade B", "result": 0.06, "unit": "nM"}, {"measurement": "IC90", "setting": "[10]; Table 2, clade B", "result": 0.29, "unit": "nM"}, {"measurement": "IC50", "setting": "[10]; Table 3, clade B", "result": "0.14 ± 0.01", "unit": "nM"}, {"measurement": "IC90", "setting": "[10]; Table 3, clade B", "result": "0.39 ± 0.04", "unit": "nM"}, {"measurement": "IC50", "setting": "[11]", "result": "< 0.021", "unit": "nM"}, {"measurement": "IC90", "setting": "[11]", "result": "< 0.021", "unit": "nM"}, {"measurement": "IC50", "setting": "[12]", "result": "0.29 ± 0.18", "unit": "nM"}, {"measurement": "IC90", "setting": "[12]", "result": "3 ± 2.9", "unit": "nM"}, {"measurement": "IC50", "setting": "[13]", "result": "0.13 ± 0.01", "unit": "nM"}, {"measurement": "IC90", "setting": "[13]", "result": "0.74 ± 0.06", "unit": "nM"}, {"measurement": "IC50", "setting": "[14]; Table 2, clade B", "result": 0.12, "unit": "nM"}, {"measurement": "IC90", "setting": "[14]; Table 2, clade B", "result": 0.36, "unit": "nM"}, {"measurement": "IC50", "setting": "[14]; Table 3, clade B", "result": "0.15 ± 0.04", "unit": "nM"}, {"measurement": "IC90", "setting": "[14]; Table 3, clade B", "result": "0.5 ± 0.07", "unit": "nM"}, {"measurement": "IC50", "setting": "[15]", "result": "0.83 ± 0.11", "unit": "nM"}, {"measurement": "IC90", "setting": "[15]", "result": "8.2 ± 1.3", "unit": "nM"}, {"measurement": "IC50", "setting": "[16]", "result": 0.022, "unit": "nM"}, {"measurement": "IC50", "setting": "[17]", "result": 0.081, "unit": "nM"}, {"measurement": "IC90", "setting": "[17]", "result": 1, "unit": "nM"}]}
